This note sets out measurements from patent publication US7772241B2, “Variolin derivatives and their use as antitumor agents” (Pharma Mar S.A., priority 2001, dated 2010).

Structures are written as SMILES. Where two headings read alike, the source gives them in different places.

Usually GI50 stands for the concentration giving 50% growth inhibition.

One series relates to A-549. Description: Inhibition of cells growth by colorimetric (SRB) assay, A-549. Put shortly: (§1)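 Human tumour cells seeded at 5×10^3/well in RPMI 1640 10% FBS, attached 18 h, then exposed 48 h to samples at 10 to 10^−8 μg/ml in DMSO/EtOH/PBS (0.5:0.5:99). Growth read by SRB staining after TCA fixation, OD 490 nm, triplicate wells; GI, TGI and LC derived.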
Another series relates to HMEC1. The experiment in a line: Inhibition of cells growth by colorimetric (SRB) assay, HMEC1. As to conditions: for GI50: Homo sapiens, HMEC-1, 48 h, read-out: GI50 H-MEC-1, SRB assay, 48 hours exposure; for TGI H-MEC-1: SRB assay, 48 hours exposure, in M (unit assumed). Background: The SRB assay estimates cell density from bound dye.
Test in series [1]: as above
As to conditions: human, HMEC1 cells, LC50 H-MEC-1, SRB assay, 48 hours exposure.

Another series deals with HT-29. Description: Inhibition of cells growth by colorimetric (SRB) assay, HT-29. As to conditions: for CC50: read-out: LC50 HT-29, SRB assay, 48 hours exposure. The method in brief: as §1
A further series relates to DU-145. The experiment in a line: Inhibition of cells growth by colorimetric (SRB) assay, DU-145. Particulars: for GI50: read-out: GI50 DU-145, SRB assay, 48 hours exposure. Put shortly: as §1
The test system of another series is SK-BR-3. The experiment in a line: Inhibition of cells growth by colorimetric (SRB) assay, SK-BR-3. Put shortly:
as §1

The subject of a further series is PANC-1. The experiment in a line: Inhibition of cells growth by colorimetric (SRB) assay, PANC-1. Particulars: for GI50: read-out: GI50 PANC-1, SRB assay, 48 hours exposure. The method in brief:
as §1

For a further series, the system named is IGROV-ET. The experiment in a line: Inhibition of cells growth by colorimetric (SRB) assay, IGROV-ET. Particulars: for GI50 / CC50: Homo sapiens, 48 h; for GI50: read-out: GI50 IGROV-ET, SRB assay, 48 hours exposure; for CC50: read-out: LC50 IGROV-ET, SRB assay, 48 hours exposure; for TGI IGROV-ET: SRB assay, 48 hours exposure. The method in brief: as §1
Another series concerns K-562. Description: Inhibition of cells growth by colorimetric (SRB) assay, K-562. Particulars: for GI50 / CC50: Homo sapiens, K562, 48 h; for GI50: read-out: GI50 K-562, SRB assay, 48 hours exposure; for CC50: read-out: LC50 K-562, SRB assay, 48 hours exposure; for TGI K-562: SRB assay, 48 hours exposure. The method in brief: as §1
The test system of a further series is IGROV-1. The experiment in a line: Inhibition of cells growth by colorimetric (SRB) assay, IGROV-1. Particulars: for GI50 / CC50: Homo sapiens, IGROV-1, 48 h; for GI50: read-out: GI50 IGROV, SRB assay, 48 hours exposure; for CC50: read-out: LC50 IGROV, SRB assay, 48 hours exposure; for TGI IGROV: SRB assay, 48 hours exposure. Put shortly: as §1
In another series the test system is LNCaP. Description: Inhibition of cells growth by colorimetric (SRB) assay, LNCaP. Particulars: for GI50 / CC50: Homo sapiens, LNCaP, 48 h; for GI50: read-out: GI50 LN-caP, SRB assay, 48 hours exposure; for CC50: read-out: LC50 LN-caP, SRB assay, 48 hours exposure; for TGI LN-caP: SRB assay, 48 hours exposure. The method in brief:
as §1

A further series has as its system SK-MEL-28. The experiment in a line: Inhibition of cells growth by colorimetric (SRB) assay, SK-MEL-28. Particulars: for GI50: read-out: GI50 MEL-28, SRB assay, 48 hours exposure. Put shortly: as §1
In another series the test system is LoVo-Dox. Description: Inhibition of cells growth by colorimetric (SRB) assay, LoVo-Dox. The method in brief: as §1
Another series relates to LoVo. The experiment in a line: Inhibition of cells growth by colorimetric (SRB) assay, LoVo. The method in brief:
as §1

Where [2] appears, read: Homo sapiens, A549, 48 h, read-out: GI50 A-549, SRB assay, 48 hours exposure.
Where [3] appears, read: Homo sapiens, A549, 48 h, read-out: LC50 A-549, SRB assay, 48 hours exposure.
Where [4] appears, read: Homo sapiens, HT-29, 48 h, read-out: GI50 HT-29, SRB assay, 48 hours exposure.

Regarding `CSc1nccc(-c2c3c(OCc4ccccc4)ccnc3n3c(N)nccc23)n1` [Compound 94], the GI50 with A-549 (setting [2]) was determined as 24.1 µM; in the series on HMEC1, 9.19 µM; with HT-29 (setting [4]), 24.1 µM. In addition, the CC50 is 24.1 µM with A-549 (setting [3]) and 24.1 µM with HT-29 (Homo sapiens, HT-29, 48 h). Besides, the “TGI A-549” value in the series with A-549 (SRB assay, 48 hours exposure) is 2.41E−05. Besides, in the series on HMEC1, the “TGI H-MEC-1” value worked out at 1.97E−05. The CC50 at 48 h in series [1] came to 24.1 µM. Moreover, the “TGI HT-29” value in the series on HT-29 (SRB assay, 48 hours exposure) is listed as 2.41E−05.

Regarding `CS(=O)(=O)c1nccc(-c2c3c(OCc4ccccc4)ccnc3n3c(N)nccc23)n1` [Compound 99], the GI50 with A-549 (setting [2]) was 22.4 µM; in the series with HMEC1, 8.2 µM; in the series on HT-29 (setting [4]) it was 22.4 µM. Besides, the CC50 with A-549 (setting [3]) is 22.4 µM; with HT-29 (Homo sapiens, HT-29, 48 h) it was 22.4 µM. Moreover, the “TGI A-549” value in the series on A-549 (SRB assay, 48 hours exposure) amounted to 2.24E−05. Also, the “TGI H-MEC-1” value in the series on HMEC1 came out at 2.24E−05. In addition, the CC50 at 48 h in series [1] was determined as 22.4 µM. Besides, in the series with HT-29 (SRB assay, 48 hours exposure), the “TGI HT-29” value is given as 2.24E−05.

Consider `COc1nccc(-c2c3c(OCc4ccccc4)ccnc3n3c(N)nccc23)n1` [Compound 102], for which the GI50 in the series with A-549 (setting [2]) stood at 25.1 µM; in the series with HMEC1, 6 µM; in the series with HT-29 (setting [4]), 25.1 µM. Also, the CC50 in the series on A-549 (setting [3]) was 25.1 µM; in the series with HT-29 (Homo sapiens, HT-29, 48 h) it was 25.1 µM. In the series with A-549 (SRB assay, 48 hours exposure), the “TGI A-549” value turned out to be 2.51E−05. Moreover, the “TGI H-MEC-1” value in the series on HMEC1 is on record as 1.09E−05. For the same molecule, the CC50 at 48 h in series [1] was found to be 19.7 µM. The “TGI HT-29” value in the series on HT-29 (SRB assay, 48 hours exposure) is 2.51E−05.

`COc1nccc(-c2c3c(OC)ccnc3n3c(N)nccc23)n1` [Compound 109]: the GI50 is 5.49 µM in the series with A-549 (setting [2]); 2.04 µM with HMEC1; 1.63 µM in the series with DU-145 (Homo sapiens, DU-145, 48 h); 1.47 µM with SK-BR-3 (Homo sapiens, SK-BR-3, 48 h, read-out: GI50 SK-BR-3, SRB assay, 48 hours exposure); 9.4 µM with PANC-1 (Homo sapiens, PANC-1, 48 h); 7.17 µM in the series on IGROV-ET. Also, the GI50 with K-562 is 7.6 µM; in the series on IGROV-1, 3.07 µM; in the series on LNCaP it was 1.4 µM; in the series with SK-MEL-28 (Homo sapiens, SK-MEL-28, 48 h), 1.26 µM. Moreover, the CC50 in the series on A-549 (setting [3]) worked out at 31 µM; in the series on DU-145 (Homo sapiens, DU-145, 48 h, read-out: LC50 DU-145, SRB assay, 48 hours exposure) it was 31 µM; in the series on SK-BR-3 (Homo sapiens, SK-BR-3, 48 h, read-out: LC50 SK-BR-3, SRB assay, 48 hours exposure), 31 µM; in the series on IGROV-ET it was 31 µM; in the series on K-562, 31 µM; in the series with IGROV-1, 31 µM. In addition, the CC50 was 31 µM in the series on LNCaP and 22.4 µM in the series on SK-MEL-28 (Homo sapiens, SK-MEL-28, 48 h, read-out: LC50 MEL-28, SRB assay, 48 hours exposure). Further, the “TGI A-549” value in the series with A-549 (SRB assay, 48 hours exposure) came out at 2.33E−05. In the series on HMEC1, the “TGI H-MEC-1” value turned out to be 2.17E−05. This molecule registered a CC50 at 48 h in series [1] of 31 µM. Besides, in the series with DU-145 (SRB assay, 48 hours exposure), the “TGI DU-145” value turned out to be 3.10E−05. Besides, the “TGI SK-BR-3” value with SK-BR-3 (SRB assay, 48 hours exposure) is reported as 5.40E−06. Besides, the “TGI IGROV-ET” value in the series on IGROV-ET is reported as 2.21E−05. The “TGI K-562” value in the series on K-562 is on record as 2.41E−05. In the series on IGROV-1, the “TGI IGROV” value came out at 1.46E−05. For the same molecule, the “TGI LN-caP” value in the series on LNCaP came out at 4.81E−06. Further, the “TGI MEL-28” value in the series with SK-MEL-28 (SRB assay, 48 hours exposure) was 6.64E−06.

`COc1ccnc2c1c(-c1ccnc(N)n1)c1ccnc(N)n12` [Compound 114]: in the series with A-549 (SRB assay, 48 hours exposure), the “TGI A-549” value amounted to 1.72E−06. Also, the GI50 in the series with A-549 (read-out: GI50 A-549, SRB assay, 48 hours exposure) was found to be 0.553 µM; with HMEC1, 0.67 µM; in the series on DU-145 (Homo sapiens, DU-145, 48 h) it was 0.732 µM; with LoVo-Dox (Homo sapiens, 48 h, read-out: GI50 LOVO-DOX, SRB assay, 48 hours exposure) it was 0.827 µM; in the series with PANC-1 (Homo sapiens, PANC-1, 48 h), 1.35 µM; in the series with IGROV-ET, 1.51 µM. Moreover, the GI50 with K-562 stood at 1.7 µM; in the series on IGROV-1 it was 0.843 µM; with LNCaP, 0.625 µM; in the series with SK-MEL-28 (Homo sapiens, SK-MEL-28, 48 h) it was 0.605 µM; with HT-29 (read-out: GI50 HT-29, SRB assay, 48 hours exposure), 1.04 µM; in the series with LoVo (Homo sapiens, LoVo, 48 h, read-out: GI50 LOVO, SRB assay, 48 hours exposure), 0.54 µM. The CC50 in the series with A-549 (read-out: LC50 A-549, SRB assay, 48 hours exposure) came out at 8.23 µM; in the series on DU-145 (read-out: LC50 DU-145, SRB assay, 48 hours exposure), 6.22 µM; with LoVo-Dox (Homo sapiens, 48 h, read-out: LC50 LOVO-DOX, SRB assay, 48 hours exposure), 32.5 µM; with PANC-1 (Homo sapiens, PANC-1, 48 h, read-out: LC50 PANC-1, SRB assay, 48 hours exposure), 32.5 µM; with IGROV-ET, 25.4 µM; with K-562, 16.2 µM. Moreover, the CC50 amounted to 15.8 µM with IGROV-1; 2.35 µM in the series with LNCaP; 2.4 µM in the series on SK-MEL-28 (read-out: LC50 MEL-28, SRB assay, 48 hours exposure); 32.5 µM in the series on HT-29 (Homo sapiens, HT-29, 48 h); 10.3 µM in the series with LoVo (read-out: LC50 LOVO, SRB assay, 48 hours exposure). The “TGI H-MEC-1” value with HMEC1 is listed as 1.33E−06. The molecule also returned a CC50 at 48 h in [1] of 2.65 µM. The “TGI DU-145” value with DU-145 (SRB assay, 48 hours exposure) turned out to be 1.75E−06. Moreover, the “TGI LOVO-DOX” value in the series on LoVo-Dox (SRB assay, 48 hours exposure) came out at 2.41E−06. Further, the “TGI PANC-1” value with PANC-1 (SRB assay, 48 hours exposure) is reported as 6.18E−06. Further, the “TGI IGROV-ET” value in the series on IGROV-ET is listed as 3.29E−06. Also, the “TGI K-562” value in the series on K-562 was determined as 2.98E−06. Moreover, in the series on IGROV-1, the “TGI IGROV” value was found to be 1.81E−06. The “TGI LN-caP” value in the series on LNCaP stood at 1.21E−06. Also, the “TGI MEL-28” value in the series on SK-MEL-28 (SRB assay, 48 hours exposure) came to 1.20E−06. Also, in the series with HT-29 (SRB assay, 48 hours exposure), the “TGI HT-29” value is 3.25E−06. Also, in the series on LoVo (SRB assay, 48 hours exposure), the “TGI LOVO” value is 1.98E−06.
